Experimental data as given in US20230212138A1, “PHD INHIBITOR COMPOUNDS, COMPOSITIONS, AND THEIR USE” (Akebia Therapeutics, Inc., priority 2020, published 2023).

Columns and labels:
Type in all cases: biochemical
full-length human PHD1 = target: T1, full-length human PHD1 (Homo sapiens, UniProt Q96KS0); assay: TR-FRET assay, PHD1 enzymatic IC50; conditions: 15 nM PHD1, 1 μM 2-OG
T1 construct: expressed in a baculovirus expression system as the full-length protein; FLAG (N); purchased Active Motif 81064; host or cells: baculovirus expression system
T1 sequence (Q96KS0 whole entry): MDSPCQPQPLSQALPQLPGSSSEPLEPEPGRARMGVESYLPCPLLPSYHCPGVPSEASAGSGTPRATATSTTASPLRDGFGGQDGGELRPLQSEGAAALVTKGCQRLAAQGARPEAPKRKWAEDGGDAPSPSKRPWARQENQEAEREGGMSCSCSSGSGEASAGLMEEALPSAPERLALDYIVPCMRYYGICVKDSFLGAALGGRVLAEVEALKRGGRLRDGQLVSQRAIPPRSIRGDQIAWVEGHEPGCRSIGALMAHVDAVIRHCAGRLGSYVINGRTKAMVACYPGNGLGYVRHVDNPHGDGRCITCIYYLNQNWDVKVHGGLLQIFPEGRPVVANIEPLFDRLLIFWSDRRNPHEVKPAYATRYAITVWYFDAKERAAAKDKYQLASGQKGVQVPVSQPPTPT
Description: (§1) In the presence of 2-oxoglutarate and O2, PHD enzyme hydroxylates proline 564 of biotin-tagged HIF-1α peptide resulting in generation of biotin-tagged HIF-1α-hydroxyproline, succinate and CO2. The resulting proximity of the donor fluorophore complex, monoclonal antibody anti-6His-Terbium (Tb)-cryptate Gold, bound to the His-tagged VHL protein, EloB, EloC complex (His-VBC) and the acceptor fluorophore, SA-D2 complex, bound to HIF-1α-hydroxyproline results in a fluorescence resonance energy transfer signal that can be detected and quantified
(§2) Time-resolved fluorescence resonance energy transfer (TR-FRET) assay was utilized to determine the enzymatic half maximal inhibitory concentration (IC50) value of PHD inhibitors against the full-length human prolyl-4-hydroxylase domain (PHD) enzymes, PHD1, PHD2, and PHD3. The TR-FRET assay was developed based on the specific binding of hydroxylated HIF-1α peptide with the complex formed by VHL, EloB and EloC (VBC), to generate a fluorescent signal. Terbium (Tb)-Donor (monoclonal antibody anti-6His-Tb-cryptate Gold) and D2-acceptor (streptavidin [SA]-D2) of TR-FRET are linked to the VBC complex and to HIF-1α peptide, respectively. The VBC complex binds specifically to the HIF-1α peptide when it is hydroxylated, allowing energy transfer from TR-FRET donor to acceptor (FIG. 1).
Recombinant human PHD1 protein (catalog #81064, Lot #24717001) was purchased from Active Motif (Carlsbad, Calif., USA). PHD1 was expressed in a baculovirus expression system as the full-length protein (NCBI accession number NP_542770.2) with an N-terminal FLAG tag (molecular weight 44.9 kDa). Purity (>90%) was assessed by SDS-PAGE.
(§3) PHD inhibitor compound was preincubated with PHD enzyme in a 10 μL reaction volume in white 384-well Optiplate microplates (catalog #6007290, Perkin Elmer, Waltham, Mass., USA). For this, 5 μL PHD inhibitor compound was serially diluted with dilution buffer (50 mM HEPES [4-(2-hydroxyethyl)-1-piperazineethanesulfonic acid] pH 7.5, 50 mM sodium chloride [NaCl], 0.01% Tween-20, 0.01% purified bovine serum albumin [BSA]) and mixed with 5 μL PHD enzyme mix prepared as a 4× concentrate in the dilution buffer containing PHD enzyme (60 nM PHD1, 20 nM PHD2, 140 nM PHD3), 40 μM ferrous ammonium sulfate (FAS), 4 mM sodium (Na) ascorbate. The plates were incubated for 30 minutes at room temperature without rotation.
(§4) Five microliters of the VBC/anti-6His-Tb-cryptate Gold mix prepared as a 4×concentrate in dilution buffer containing 20 nM His-VBC, 1.32 nM monoclonal antibody anti-6His-Tb-cryptate Gold was then added. This step was followed immediately by the addition of 5 μL of the HIF-1α C35 substrate mix prepared as a 4×concentrate in the dilution buffer containing 120 nM biotin-labeled HIF-1α C35, 132 nM SA-D2, 4 μM 2-oxoglutarate (2-OG) to reach a final reaction volume of 20 μL.
(§5) The final assay reaction contained 50 mM HEPES, pH 7.5, 50 mM NaCl, 1 μM 2-OG, 10 μM FAS, 1 mM Na ascorbate, 0.01% Tween-20, 0.01% purified BSA, 30 nM biotin-labeled HIF-1α C35, 5 nM His-VBC, 0.33 nM monoclonal antibody anti-6His-Tb-cryptate Gold, 33 nM SA-D2 and PHD enzyme (15 nM PHD1, 5 nM PHD2, or 35 nM PHD3) with the diluted compound.
(§6) For the measurement of the IC50 of PHD inhibitor compound, reactions were incubated for 10 minutes at room temperature and then read on a Perkin Elmer EnVision (Waltham, Mass., USA) at an excitation wavelength of 340 nm and at emission wavelengths of 615 nm and 665 nm. The data represent the quotient of the signal intensity at 665 nm and 615 nm, automatically calculated by Envision Manager software (Perkin Elmer, Waltham, Mass., USA). The IC50 values (mean, standard deviation, standard error of the mean, geometric mean and 95% confidence interval) were determined using a four-parameter curve-fit using GraphPad Prism 7.0 (GraphPad, La Jolla, Calif., USA) and represent the compound concentration plotted against the calculated ratio of 665 nm and 615 nm. […]

full-length human PHD2 = target: T2, full-length human PHD2 (Homo sapiens, UniProt Q9GZT9); assay: TR-FRET assay, PHD2 enzymatic IC50; conditions: 5 nM PHD2, 1 μM 2-OG
T2 construct: The PHD2 construct contained amino acids 1 to 426 of PHD2; His tag (N, cleaved yes); TEV protease cleavage site (N, cleaved yes); host or cells: Sf9 insect cells (baculovirus)
T2 sequence (Q9GZT9 whole entry, the tested form may be a part): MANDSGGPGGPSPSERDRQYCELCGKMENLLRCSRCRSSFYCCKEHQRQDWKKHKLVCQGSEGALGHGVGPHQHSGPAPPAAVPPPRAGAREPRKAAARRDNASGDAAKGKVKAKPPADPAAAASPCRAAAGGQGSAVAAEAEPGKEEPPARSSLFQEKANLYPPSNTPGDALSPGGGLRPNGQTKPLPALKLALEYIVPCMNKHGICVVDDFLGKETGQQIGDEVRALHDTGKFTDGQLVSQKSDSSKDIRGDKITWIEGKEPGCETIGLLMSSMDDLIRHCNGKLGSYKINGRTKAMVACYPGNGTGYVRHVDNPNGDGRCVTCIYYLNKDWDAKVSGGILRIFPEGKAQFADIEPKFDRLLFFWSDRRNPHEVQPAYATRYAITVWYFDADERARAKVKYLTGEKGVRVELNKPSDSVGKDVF
Description: as §1, §2
The full-length human PHD2 enzyme was produced with a baculovirus infected insect cell (BIIC) expression system by Beryllium (Bedford, Mass., USA). The PHD2 construct contained amino acids 1 to 426 of PHD2 (UniProt Knowledgebase[UniProtKB]/Swiss-Prot accession number Q9GZT9.1), and a His tag and a Tobacco Etch Virus (TEV) protease cleavage site at the N-terminus. The construct was expressed in Sf9 insect cells, purified by Ni-NTA column and digested with TEV protease to remove the His tag.
as §3, §4, §5
For the measurement of the IC50 of PHD inhibitor compound, reactions were incubated for 10 minutes at room temperature and then read on a Perkin Elmer EnVision (Waltham, Mass., USA) at an excitation wavelength of 340 nm and at emission wavelengths of 615 nm and 665 nm. The data represent the quotient of the signal intensity at 665 nm and 615 nm, automatically calculated by Envision Manager software (Perkin Elmer, Waltham, Mass., USA). […]

full-length human PHD3 = target: T3, full-length human PHD3 (Homo sapiens, UniProt Q9H6Z9); assay: TR-FRET assay, PHD3 enzymatic IC50; conditions: 35 nM PHD3, 1 μM 2-OG
T3 construct: It was expressed in E. coli as the full-length protein; 6-His (N); purchased Active Motif 81033; host or cells: E. coli
T3 sequence (Q9H6Z9 whole entry): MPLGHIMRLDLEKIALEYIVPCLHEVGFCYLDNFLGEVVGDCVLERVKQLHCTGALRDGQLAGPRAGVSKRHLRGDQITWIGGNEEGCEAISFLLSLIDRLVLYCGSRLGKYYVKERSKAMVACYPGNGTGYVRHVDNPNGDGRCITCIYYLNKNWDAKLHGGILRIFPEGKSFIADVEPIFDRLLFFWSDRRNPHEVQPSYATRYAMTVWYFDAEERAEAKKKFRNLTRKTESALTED
Description: as §1, §2
Recombinant human PHD3 protein (molecular weight 31.1 kDa) was purchased from Active Motif (Carlsbad, Calif., USA). It was expressed in E. coli as the full-length protein (NCBI accession number NP_071356.1) with an N-terminal 6-His tag (catalog #81033, Lot #24417001).
as §3, §4, §5, §6

N#Cc1ccc(-c2cnn(-c3ccc(-n4cccn4)cn3)c2O)cc1 [Compound 10, 4-(1-(5-(1H-pyrazol-1-yl)pyridin-2-yl)-5-hydroxy-1H-pyrazol-4-yl)benzonitrile]
IC50 (full-length human PHD1): < 0.1 µM
IC50 (full-length human PHD2): < 0.1 µM
IC50 (full-length human PHD3): 0.1 to 1 µM

N#Cc1ccc(-c2cnn(-c3ccc(-c4ncco4)cn3)c2O)cc1 [Compound 11, 4-(5-hydroxy-1-(5-(oxazol-2-yl)pyridin-2-yl)-1H-pyrazol-4-yl)benzonitrile]
IC50 (full-length human PHD1): < 0.1 µM
IC50 (full-length human PHD2): < 0.1 µM
IC50 (full-length human PHD3): 0.1 to 1 µM

N#Cc1ccc(-c2cnn(-c3ccc(-c4nccs4)cn3)c2O)cc1 [Compound 12, 4-(5-hydroxy-1-(5-(thiazol-2-yl)pyridin-2-yl)-1H-pyrazol-4-yl)benzonitrile]
IC50 (full-length human PHD1): < 0.1 µM
IC50 (full-length human PHD2): < 0.1 µM
IC50 (full-length human PHD3): < 0.1 µM

N#Cc1ccc(-c2cnn(-c3ccc(N4CCCC4=O)cn3)c2O)cc1 [Compound 15, 4-(5-hydroxy-1-(5-(2-oxopyrrolidin-1-yl)pyridin-2-yl)-1H-pyrazol-4-yl)benzonitrile]
IC50 (full-length human PHD1): < 0.1 µM
IC50 (full-length human PHD2): < 0.1 µM
IC50 (full-length human PHD3): < 0.1 µM

N#Cc1ccc(-c2cnn(-c3ccc(F)cn3)c2O)cc1 [Compound 17, 4-(1-(5-fluoropyridin-2-yl)-5-hydroxy-1H-pyrazol-4-yl)benzonitrile]
IC50 (full-length human PHD1): < 0.1 µM
IC50 (full-length human PHD2): < 0.1 µM
IC50 (full-length human PHD3): 0.1 to 1 µM

CS(=O)(=O)c1ccc(-n2ncc(-c3ccc(Cl)cc3)c2O)nc1 [Compound 19, 4-(4-chlorophenyl)-1-(5-(methylsulfonyl)pyridin-2-yl)-1H-pyrazol-5-ol]
IC50 (full-length human PHD1): < 0.1 µM
IC50 (full-length human PHD2): < 0.1 µM
IC50 (full-length human PHD3): 0.1 to 1 µM

CS(=O)(=O)c1ccc(-n2ncc(-c3ccc(F)cc3)c2O)nc1 [Compound 20, 4-(4-fluorophenyl)-1-(5-(methylsulfonyl)pyridin-2-yl)-1H-pyrazol-5-ol]
IC50 (full-length human PHD1): < 0.1 µM
IC50 (full-length human PHD2): < 0.1 µM
IC50 (full-length human PHD3): ≥ 10 µM

N#Cc1ccc(-c2cnn(-c3ccc(NC(=O)C4CC4)cn3)c2O)cc1 [Compound 22, N-(6-(4-(4-cyanophenyl)-5-hydroxy-1H-pyrazol-1-yl)pyridin-3-yl)-cyclopropanecarboxamide]
IC50 (full-length human PHD1): < 0.1 µM
IC50 (full-length human PHD2): < 0.1 µM
IC50 (full-length human PHD3): 0.1 to 1 µM

CCC(=O)Nc1ccc(-n2ncc(-c3ccc(C#N)cc3)c2O)nc1 [Compound 23, N-(6-(4-(4-cyanophenyl)-5-hydroxy-1H-pyrazol-1-yl)pyridin-3-yl)propionamide]
IC50 (full-length human PHD1): < 0.1 µM
IC50 (full-length human PHD2): < 0.1 µM
IC50 (full-length human PHD3): < 0.1 µM

CS(=O)(=O)Nc1ccc(-n2ncc(-c3ccc(C#N)cc3)c2O)nc1 [Compound 24, N-(6-(4-(4-cyanophenyl)-5-hydroxy-1H-pyrazol-1-yl)pyridin-3-yl)methanesulfonamide]
IC50 (full-length human PHD1): < 0.1 µM
IC50 (full-length human PHD2): < 0.1 µM
IC50 (full-length human PHD3): < 0.1 µM

CCS(=O)(=O)Nc1ccc(-n2ncc(-c3ccc(C#N)cc3)c2O)nc1 [Compound 25, N-(6-(4-(4-cyanophenyl)-5-hydroxy-1H-pyrazol-1-yl)pyridin-3-yl)ethanesulfonamide]
IC50 (full-length human PHD1): < 0.1 µM
IC50 (full-length human PHD2): < 0.1 µM
IC50 (full-length human PHD3): < 0.1 µM
